According to US20210062139A1, “CELL AGGREGATION SUPPRESSOR” (KANEKA CORPORATION, priority 2017, published 2021):

Legend:
Type in all cases: cell-based
[1] = test system: human iPS cells (TkDN4-M cell line); assay: Cell aggregation assay: suspension (swirling) culture of human iPS cells, phase contrast microscopy; conditions: Day 1 of culture; for cell aggregation suppression (aggregate formation observed by microscopy): compared to only Y-27632
Protocol: TkDN4-M cell lines (Institute of Medical Science, The University of Tokyo) were used as human iPS cells. Human iPS cells were seeded on cell culture dishes coated with Vitronectin (Thermo Fisher Scientific Co., Ltd.) and subjected to a maintenance culture using Essential 8™ (Thermo Fisher Scientific Co., Ltd.) as the culture medium. Accutase (Thermo Fisher Scientific Co., Ltd.) was used as a cell detachment agent during passage. In addition, when the cells were seeded, Y-27632 (Wako Pure Chemical Industries, Ltd.) at a concentration of 10 μM was added to a culture medium. The culture medium was changed every day. For experiments, human iPS cells (the number of passage was 50 or less) were used.
The resulting cells were suspended in Essential 8™ culture medium comprising a final concentration of 5 mg/mL of BSA (Wako Pure Chemical Industries, Ltd.) and 10 μM of Y-27632 (Wako Pure Chemical Industries, Ltd.), and a portion thereof was stained with trypan blue and the number of cells was counted. The cell suspension was prepared so as to contain 2×10^5 cells per mL. […] Then the cells were seeded at a ratio of 1.3 mL/well in a 12-well plate for suspension culture (Sumitomo Bakelite Co., Ltd.). The cell-seeded plate was subjected to a swirling culture on a rotary shaker (OPTIMA, Inc.) at a speed of 90 rpm along the horizontal plane to draw a circle with a swirling width (diameter) of 25 mm, and cells were cultured in suspension under a condition at 5% CO2 and 37° C. At the next day after the start of culture (Day 1 of culture), images were obtained by phase contrast microscopy. A control test was conducted using a cell suspension prepared under the same condition as above except that Y-27632 and TRAP-6 were not added.
(§1) A cell suspension was prepared in the same manner as in Example 2, and separately, the cell aggregation suppressor was adjusted so that the final concentration of TRAP-6 (same as above) was 3.74 mg/mL (10 mM). Then the adjusted cell aggregation suppressor was added to the cell suspension so that the final concentration of the agonist of a thrombin receptor was 5 μM. Then the cells were seeded at a ratio of 4 mL/well in a 6-well plate for suspension culture (Sumitomo Bakelite Co., Ltd.). The cell-seeded plate was subjected to a swirling culture on a rotary shaker (OPTIMA, Inc.) at a speed of 75 rpm along the horizontal plane to draw a circle with a swirling width (diameter) of 25 mm, and cells were cultured in suspension under a condition at 5% CO2 and 37° C. After the next day of culture (Day 1 of culture), the culture medium was exchanged daily for fresh medium (Essential 8™ culture medium containing BSA (Wako Pure Chemical Industries, Ltd.) at a final concentration of 5 mg/mL), and the culture continued until Day 5 of culture. A control test was conducted using a cell suspension prepared under the same condition as described above except that TRAP-6 was not added. Images were obtained by phase contrast microscopy every day during culture. The concentration of glucose contained in the culture supernatant collected at the time of culture medium exchange was measured with biosensor BF-5iD (Prince Measuring Equipment Co., Ltd.) to calculate glucose consumption.
Cell suspensions were prepared in the same manner as in Example 2 using human iPS cells cultured with the protocol of Example 1, and instead of TRAP-6, a PAR-1 agonist (Proteinase Activated Receptor-1; PAR-1 agonist, ANASPEC, AS-62937, a C-terminal amidated peptide consisting of the amino acid sequence of TFLLRN (SEQ ID NO: 8)) was added so that a final concentration thereof was 32.8 μM or S1P (sphingosine-1-phosphate; Cayman, 62570) (positive control) was added so that the final concentration thereof was 0.8 μg/mL). Then, suspension culture and image acquisition were performed in the same manner as in Example 2.

[2] = test system: human iPS cells (TkDN4-M cell line); assay: Size distribution of cell aggregates (width of widest portion in micrograph); conditions: TRAP-6 5 μM, Day 1 of culture
Protocol: as §1
For cells cultured in suspension in the presence of TRAP-6 according to Example 3, 210 cell aggregates in an image acquired at Day 1 of culture were observed and compared using a micrograph scale, the width of the widest portion (referred to as “ϕ”) of each cell aggregate was measured, then distribution thereof was examined, and the average±standard deviation was calculated.

[3] = test system: human iPS cells (TkDN4-M cell line); assay: Cell yield at Day 5 of suspension culture (trypan blue count); conditions: TRAP-6 5 μM on Day 1, then TRAP-6-free medium; seeded 8×10^5 cells/well
Protocol: as §1, with “After the next day of culture (Day 1 of culture), the culture medium was exchanged daily for fresh medium (Essential 8™ culture medium containing BSA (Wako Pure Chemical Industries, Ltd.) at a final concentration of 5 mg/mL), and the culture continued until Day 5 of culture. A control test was conducted using a cell suspension prepared under the same condition as described above except that TRAP-6 was not added. Images were obtained by phase contrast microscopy every day during culture.” left out
Cell yields were also measured at Day 5 of culture. […] After that, the number of cells was counted using a hemocytometer to determine the cell yield.

[4] = test system: human iPS cells (TkDN4-M cell line); assay: Percentage of cells positive for undifferentiation markers (flow cytometry); conditions: Day 5 of culture
Protocol: as §1
In addition, at Day 5 of culture, cell aggregates were collected, dispersed with Accutase, and then suspended in Essential 8™ culture medium containing 5 mg/mL BSA. A portion of this cell suspension was stained with trypan blue and the number of cells was counted. After the above cell suspensions were centrifuged at 300 g for 3 minutes, the supernatant was then removed, and the cells were washed with PBS (phosphate buffered saline). Next, the cells were fixed with 4% paraformaldehyde (Wako Pure Chemical Industries, Ltd.) at room temperature for 20 minutes, then washed 3 times with PBS. After cells were resuspended with 300 μL of PBS, 3 mL of cold methanol was added while stirring with voltex, and permeabilized at −20° C. overnight or more. After 3 washes with 3% FBS (fetal bovine serum)/PBS, cells were resuspended with 3% FBS (fetal bovine serum)/PBS and blocked at room temperature for 30 minutes to 1 hour. Subsequently, the cells were stained with fluorescently labeled anti-SOX2 antibodies (Cat. No. 656110, BioLegend, Inc.) and fluorescently labeled anti-OCT4 antibodies (Cat. No. 653703, BioLegend, Inc.) and fluorescently labeled anti-Nanog antibodies (Cat. No. 674010, BioLegend, Inc.) at 4° C. for 30 minutes to 1 hour. […] The resulting cells were analyzed on FACSVerse. […]

[5] = test system: human iPS cells (TkDN4-M cell line); assay: Glucose consumption during suspension culture of human iPS cells; conditions: TRAP-6 5 μM on Day 1, then TRAP-6-free medium, Day 1 to Day 5, compared to TRAP-6 non-added condition
Protocol: as §1, with “A control test was conducted using a cell suspension prepared under the same condition as described above except that TRAP-6 was not added. Images were obtained by phase contrast microscopy every day during culture.” left out

[6] = TRAP-6 5 μM on Day 1, then TRAP-6-free medium

Thrombin Receptor Activator for Peptide 6 [TRAP-6]
cell aggregation suppression (aggregate formation observed by microscopy) ([1]; TRAP-6 2 μM with Y-27632 10 μM): aggregation was suppressed and smaller aggregates were formed
aggregate size observed by microscopy ([1]; TRAP-6 5 μM with Y-27632 10 μM, 6-well plate, 75 rpm, compared to no TRAP-6): formation of smaller aggregates
cell aggregation suppression (aggregate formation observed by microscopy) ([1]; TRAP-6 10 μM with Y-27632 10 μM): aggregation was suppressed and smaller aggregates were formed
cell aggregation suppression (aggregate formation observed by microscopy) ([1]; TRAP-6 50 μM with Y-27632 10 μM): aggregation was suppressed and smaller aggregates were formed
percentage of cell aggregates with size (diameter) 40 μm or more and 300 μm or less [2]: 100%
percentage of cell aggregates with size (diameter) 60 μm or more and 300 μm or less [2]: 100%
percentage of cell aggregates with size (diameter) 80 μm or more and 300 μm or less [2]: 98.0%
percentage of cell aggregates with size (diameter) 100 μm or more and 300 μm or less [2]: 97.0%
average±standard deviation of cell aggregate size (diameter) ([2]; 210 cell aggregates): 167.8±35.3 μm
Number of cell aggregates by size ([2]; size range 40- μm): 0
Percentage of cell aggregates by size ([2]; size range 40- μm): 0%
Number of cell aggregates by size ([2]; size range 60- μm): 4
Percentage of cell aggregates by size ([2]; size range 60- μm): 2%
Number of cell aggregates by size ([2]; size range 80- μm): 2
Percentage of cell aggregates by size ([2]; size range 80- μm): 1%
Number of cell aggregates by size ([2]; size range 100- μm): 5
Percentage of cell aggregates by size ([2]; size range 100- μm): 2%
Number of cell aggregates by size ([2]; size range 120- μm): 25
Percentage of cell aggregates by size ([2]; size range 120- μm): 12%
Number of cell aggregates by size ([2]; size range 140- μm): 58
Percentage of cell aggregates by size ([2]; size range 140- μm): 28%
Number of cell aggregates by size ([2]; size range 160- μm): 56
Percentage of cell aggregates by size ([2]; size range 160- μm): 27%
Number of cell aggregates by size ([2]; size range 180- μm): 31
Percentage of cell aggregates by size ([2]; size range 180- μm): 15%
Number of cell aggregates by size ([2]; size range 200- μm): 13
Percentage of cell aggregates by size ([2]; size range 200- μm): 6%
Number of cell aggregates by size ([2]; size range 220- μm): 8
Percentage of cell aggregates by size ([2]; size range 220- μm): 4%
Number of cell aggregates by size ([2]; size range 240- μm): 3
Percentage of cell aggregates by size ([2]; size range 240- μm): 1%
Number of cell aggregates by size ([2]; size range 260- μm): 4
Percentage of cell aggregates by size ([2]; size range 260- μm): 2%
Number of cell aggregates by size ([2]; size range 280- μm): 1
Percentage of cell aggregates by size ([2]; size range 280- μm): 0%
Number of cell aggregates by size ([2]; size range 300- μm): 0
Percentage of cell aggregates by size ([2]; size range 300- μm): 0%
proliferation of seeded cells (cell yield) at Day 5 of culture [3]: 8.5 fold
percentage of cells positive for Nanog [4, 6]: ≥ 99%
percentage of cells positive for OCT4 [4, 6]: ≥ 98%
percentage of cells positive for SOX2 [4, 6]: ≥ 99%
undifferentiated state of human iPS cell aggregates ([4]; aggregates formed by addition of Y-27632 and TRAP-6 (5 μM)): remained undifferentiated
glucose consumption [5]: greater than that under the TRAP-6 non-added condition

C[C@@H](N)[C@H]1CC[C@H](C(=O)Nc2ccncc2)CC1 [Y-27632, 4-[(1R)-1-aminoethyl]-N-pyridin-4-ylcyclohexane-1-carboxamide]
aggregate formation observed by microscopy ([1]; Y-27632 10 μM alone, compared to control without Y-27632): aggregates were formed

CCCCCCCCCCCCC/C=C/[C@@H](O)[C@@H](N)COP(=O)(O)O [S1P, sphingosine-1-phosphate]
cell aggregation suppression (aggregate formation observed by microscopy) ([1]; S1P 0.8 μg/mL (positive control) with Y-27632 10 μM): aggregation was suppressed and smaller aggregates were formed
